Assay results from US11925690B2, “Bifunctional molecules for targeting Rpn11” (AMPHISTA THERAPEUTICS LTD, priority 2018, dated 2024).

How the values were obtained:
Assay type in all cases: cell-based
[1] = system: Brd4, c-MYC, cleaved PARP (C-PARP); assay: Immunoblot of Brd4, c-MYC and cleaved PARP in MV4-11 cells
Procedure: MV4-11 (0.7×10^6 cells/mL) were seeded in 10 cm plates (10 mL DMEM supplemented with 10% FBS and L-glutamine) overnight before treatment with compounds at the desired concentration and with a final DMSO concentration of 0.1% v/v. After 6 h incubation time, cells were washed with 2× with DPBS (Gibco) and lysed using 85 μL RIPA buffer (Sigma-Aldrich) supplemented with cOmplete Mini EDTA-free protease inhibitor cocktail (Roche) and benzonase. Lysates were clarified by centrifugation (20000 g, 10 min, 4° C.) and the total protein content of the supernatant was quantified using a Bradford colorimetric assay. Samples were prepared using equal amounts of total protein and LDS sample buffer (Invitrogen). For immunoblot analysis, the following antibodies were used: anti-Brd4 (ab128874, 1:1,000 dilution), anti-cmyc (ab32072, 1:1000 dilution), anti-CPARP (CST-9541T, 1:1,000 dilution), and anti-Tubulin hFAB-rhodamine (BioRad, 12004166, 1:10000 dilution).

Brd2 = Brd2 (Homo sapiens, UniProt P25440); assay: Time-dependent BET degradation, immunoblot; design: endogenous in cells; host or cells: HEK293 (CRL-1573), HeLa (CCL-2); conditions: HeLa, Brd2, 1 μM
Brd2, sequence (P25440 whole entry): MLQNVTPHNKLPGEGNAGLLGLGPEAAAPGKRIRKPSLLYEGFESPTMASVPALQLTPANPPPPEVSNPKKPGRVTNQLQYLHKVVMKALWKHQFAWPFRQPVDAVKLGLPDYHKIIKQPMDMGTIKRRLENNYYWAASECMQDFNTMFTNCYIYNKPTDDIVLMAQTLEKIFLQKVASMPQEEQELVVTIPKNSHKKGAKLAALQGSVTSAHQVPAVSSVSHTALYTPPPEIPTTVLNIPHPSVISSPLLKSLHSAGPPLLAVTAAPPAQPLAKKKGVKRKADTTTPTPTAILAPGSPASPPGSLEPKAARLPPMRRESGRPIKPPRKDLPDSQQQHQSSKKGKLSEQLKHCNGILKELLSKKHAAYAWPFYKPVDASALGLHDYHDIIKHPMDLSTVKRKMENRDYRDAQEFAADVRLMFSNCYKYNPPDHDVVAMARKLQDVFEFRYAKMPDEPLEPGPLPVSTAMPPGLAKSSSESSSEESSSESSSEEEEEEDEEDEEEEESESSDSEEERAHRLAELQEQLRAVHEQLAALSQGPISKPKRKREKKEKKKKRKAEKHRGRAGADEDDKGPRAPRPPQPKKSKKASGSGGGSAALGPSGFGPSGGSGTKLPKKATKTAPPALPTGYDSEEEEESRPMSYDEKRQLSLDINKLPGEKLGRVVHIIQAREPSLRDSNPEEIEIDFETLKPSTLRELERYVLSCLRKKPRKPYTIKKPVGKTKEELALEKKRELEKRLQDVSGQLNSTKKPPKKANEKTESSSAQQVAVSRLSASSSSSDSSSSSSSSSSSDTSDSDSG
Procedure: Immunoblotting. Proteins were separated by SDS-PAGE on NuPage 4-12% Bis-Tris gels, followed by transfer to Amersham Protran 0.45 NC nitrocellulose membrane (GE Healthcare) using wet transfer. Membranes were blocked using 5% w/v milk in Tris-buffered saline (TBS) with 0.1% Tween-20. Blots were probed (overnight at 4 °C) using anti-Brd2 (Abcam ab139690, 1:2,000 dilution), anti-Brd3 (Abcam ab50818, 1:500 dilution), and anti-Brd4 (Abcam ab128874, 1:1,000 dilution) primary antibodies, as appropriate. The next day, blots were washed with TBST and incubated (1 h at Room temperature) with anti-Tubulin hFAB-rhodamine (BioRad, 12004166) primary antibody, and either anti-rabbit IRDye 800CW (Licor 1:1,000 dilution) or anti-mouse IRDye 800CW (Licor 1:1,000 dilution) secondary antibody. Blots were developed using a Bio-Rad ChemiDoc MP Imaging System, and band quantification was performed using Image Studio software (LiCor). Band intensities were normalized to the tubulin loading control and reported as % of the average 0.1% DMSO vehicle intensity. Degradation data was plotted and analysed using Prism (Graphpad, version 8).
HEK293 (0.5×10^6) cells were seeded in standard 6-well plates (2 mL medium) overnight before treatment with compounds at 1 μM concentration, with a final DMSO concentration of 0.1% v/v. After incubation for the desired time (0-24 hrs), cells were washed with DPBS (Gibco) and lysed using 85 μL RIPA buffer (Sigma-Aldrich) supplemented with complete Mini EDTA-free protease inhibitor cocktail (Roche) and benzonase. Lysates were clarified by centrifugation (20000 g, 10 min, 4° C.) and the total protein content of the supernatant was quantified using a Bradford colorimetric assay. Samples were prepared using equal amounts of total protein and LDS sample buffer (Invitrogen). Band intensities were normalized to the tubulin loading control and reported as % of the average 0.1% DMSO vehicle intensity. Degradation data was plotted and analysed using Prism (Graphpad, version 8).
MZ1 and 11JQ17 were used at 1 μM (4 h) for positive and negative controls, respectively. […]

Brd4 = biological target: T1, Brd4 (Homo sapiens, UniProt O60885); assay: Mechanistic evaluation: Brd4 degradation after inhibitor pre-treatment; conditions: HEK293, 1 μM degrader 4 h
T1 construct: immunoblot analysis of Brd4 following 4 h treatment of HEK293 cells; endogenous in cells; host or cells: HEK293 (CRL-1573)
Procedure: HeLa (5×10^5) and HEK293 (1×10^6) cells were seeded in standard 6-well plates (2 mL medium) overnight before pre-treatment with inhibitors (10 μM bortezomib, 10 μM capzimin, 10 μM JQ1). After a 0.5 h pre-incubation time, cells were subsequently treated with vehicle, 1 μM MZ1 or 1 μM 11JQ15, yielding a final overall DMSO concentration of 0.2% v/v. After 4 h incubation, cells were washed with DPBS (Gibco) and lysed using 85 μL RIPA buffer (Sigma-Aldrich) supplemented with cOmplete Mini EDTA-free protease inhibitor cocktail (Roche) and benzonase. Lysates were clarified by centrifugation (20000 g, 10 min, 4° C.) and the total protein content of the supernatant was quantified using a Bradford colorimetric assay. Samples were prepared using equal amounts of total protein and LDS sample buffer (Invitrogen).
Brd4 band intensities were normalized to tubulin loading control and reported in FIG. 6B as % of the average 0.1% DMSO vehicle intensity. Each bar is mean±SEM of three independent experiments performed in duplicate (n=3).

HEK293 cells = assay: Unbiased whole proteome analysis by TMT-labelling MS; conditions: HEK293, 1 μM, 4 h, n=3
Procedure: HEK293 (2.2×10 6) cells were seeded in 10 cm plates (10 mL medium) overnight before treatment with 1 μM compound for a final DMSO concentration of 0.1% v/v. After 4 h incubation time, cells were washed with 2× with DPBS (Gibco) and lysed using 500 μL lysis buffer (100 mM Tris, 4% (w/v) SDS, pH 8.0) supplemented with cOmplete Mini EDTA-free protease inhibitor cocktail (Roche) and benzonase. Lysates were briefly sonicated (2×10 s), clarified by centrifugation (20000 g, 10 min, 4° C.) and the total protein content of the supernatant was quantified using a BCA assay (Thermo Fisher Scientific).
Sample processing, digestion, desalting, labelling, and fractionation were performed at Fingerprint Proteomics (University of Dundee) as described previously [Gadd et al. 10.1038/nchembio.2329]. FIG. 7 depicts fold change of abundance of 7882 proteins comparing 11JQ15 to DMSO treatment (left) and comparing 1 μM 11JQ17 to DMSO treatment (right), as well as their respective p-values (t-test; n=3).

[2] = MV4-11, increasing concentrations, 6 h

SMILES: Cc1sc2c(c1C)C(c1ccc(Cl)cc1)=N[C@@H](CC(=O)NCCCCNC(=O)c1cc(SC(=O)c3ccccc3)c3ncc(C(=O)NCCc4nccs4)cc3c1)c1nnc(C)n1-2 [Example 11JQ16]
- increase in C-PARP compared with JQ1 and 11JQ18 ([1]; MV4-11, 6 h): significantly greater than inhibitor (JQ1) alone and the negative control (11JQ18)
- Brd4 and c-MYC levels (FIG. 9) [1, 2]: depletion of Brd4 and c-MYC levels
- cleaved PARP (FIG. 9) [1, 2]: corresponding increase in cleaved PARP

SMILES: Cc1sc2c(c1C)C(c1ccc(Cl)cc1)=N[C@@H](CC(=O)NCCCCNC(=O)c1cc(S)c3ncc(C(=O)NCCc4nccs4)cc3c1)c1nnc(C)n1-2 [Example 11JQ7]
- Dmax at 1 µM (Brd2): 50%
- Abs. T1/2 (Brd2; time to deplete 50% of the protein relative to DMSO): 4 h
- T1/2 (Brd2; time to reach 50% of the Dmax): 4 h

SMILES: Cc1sc2c(c1C)C(c1ccc(Cl)cc1)=N[C@@H](CC(=O)NCCOCCNC(=O)c1cc(SC(=O)c3ccccc3)c3ncc(C(=O)NCCc4nccs4)cc3c1)c1nnc(C)n1-2 [Example 11JQ15]
- Brd4 degradation in the presence of JQ1 (Brd4; 10 μM JQ1 pre-treatment 0.5 h): completely blocked
- Brd4 degradation in the presence of bortezomib (Brd4; 10 μM bortezomib pre-treatment 0.5 h): completely blocked
- Brd4 degradation in the presence of capzimin (Brd4; 10 μM capzimin pre-treatment 0.5 h): significantly blocked
- fold change of abundance of 7882 proteins vs DMSO (FIG. 7) (HEK293 cells): selective degradation of Brd2, Brd3 and Brd4
